8 compounds from ChEMBL document CHEMBL1201862, “PubChem BioAssay data set” (2004) can be followed below.

The structures appear in SMILES notation. Calls of active or inactive are those of the source.

Assay [1] is described as follows: P. falciparum Dd2 growth inhibitors, dose response, SYBR Green, cherry-picked samples (AID 1159567). Format: functional, cell-based.
Assay [2] is described as follows: inhibitors of HIV Env-driven cell fusion, dose response, cherry-pick (AID 652057). The format is functional, cell-based.
Assay [3] can be described thus: YAP1 pathway inhibition via CTGF transcript levels, dose response, cell-based, DLD1 colon cancer, RT-qPCR, cherry-pick (AID 1053122). To be noted: Cancer cell lines. Format: functional.
Assay [4] in a line: inhibitors of clade B AD8 Env fusion, dose response, cell-based, cherry-pick (AID 652062).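 Further: luciferase signal from cell-cell fusion driven by HIV-1 clade B AD8 Env; potency is for inhibitors of fusion seen as a drop in luminescence.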 Format: functional.
A short description of assay [5]: HEK293T cell cytotoxicity, dose response, cytotoxicity control, luminescence plate reader, powder samples, set 4 (AID 651863). Format: functional, cell-based. To be noted: HEK293.
The target in assay [6] is Metabotropic glutamate receptor 5 (Rattus norvegicus, UniProt P31424). The assay is described as follows: Identification of a glycine sulfonamide based non-MPEP site positive allosteric potentiator (PAM) of mGlu5 (calcium_assay). Format: functional.
The nature of assay [7]: HeLa cell cytotoxicity, dose response, cytotoxicity control, 24 h, plate reader, dry powder (AID 686928). The format is functional, cell-based.
The nature of assay [8]: MITF Orthogonal Assay: SK-MEL-5 CTG Assay Measured in Cell-Based System Using Plate Reader - 2084-02_Inhibitor_Dose_DryPowder_Activity_Set7. Format: functional.
Assay [9] can be described thus: MITF: Counter assay: A375 proliferation Measured in Cell-Based System Using Plate Reader - 2084-03_Inhibitor_Dose_DryPowder_Activity_Set8. To be noted: A-375. The format is functional.
The nature of assay [10]: TRPM1 promoter luciferase reporter signal decrease, dose response, MITF inhibitor project, cell-based, SK-MEL-5, dry powder, set 8 (AID 624430). Format: functional.
In assay [11] the target is Protein Wnt-3a (Mus musculus, UniProt P27467). Put plainly: SAR analysis of small molecule antagonists of Gli-SUFU in a Wnt3a luminescent reporter assay. Format: functional.
The nature of assay [12]: LGR2 antagonists, dose response, cell-based, HEK293, CRE-luciferase reporter, cherry pick (AID 743342). The format is functional.
The nature of assay [13]: A549 cell cytotoxicity, dose response, cytotoxicity control, plate reader, cherry-pick, antagonist series (AID 743412). Format: functional, cell-based.
Assay [14] is described as follows: T. cruzi growth inhibition in host cells, dose response, cell-based, plate reader, dry powder, set 2 (AID 652275). The format is functional.

Sequence of Protein Wnt-3a (P27467 whole entry): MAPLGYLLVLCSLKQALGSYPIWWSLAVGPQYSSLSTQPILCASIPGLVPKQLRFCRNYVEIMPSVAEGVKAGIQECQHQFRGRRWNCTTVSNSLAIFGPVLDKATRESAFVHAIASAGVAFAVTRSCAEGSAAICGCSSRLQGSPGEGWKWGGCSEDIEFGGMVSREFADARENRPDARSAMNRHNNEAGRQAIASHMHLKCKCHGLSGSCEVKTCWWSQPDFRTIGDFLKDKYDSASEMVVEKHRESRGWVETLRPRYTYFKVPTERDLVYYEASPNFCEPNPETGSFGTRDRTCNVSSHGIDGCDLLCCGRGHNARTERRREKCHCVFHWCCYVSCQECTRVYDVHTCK
Sequence of Metabotropic glutamate receptor 5 (P31424 whole entry): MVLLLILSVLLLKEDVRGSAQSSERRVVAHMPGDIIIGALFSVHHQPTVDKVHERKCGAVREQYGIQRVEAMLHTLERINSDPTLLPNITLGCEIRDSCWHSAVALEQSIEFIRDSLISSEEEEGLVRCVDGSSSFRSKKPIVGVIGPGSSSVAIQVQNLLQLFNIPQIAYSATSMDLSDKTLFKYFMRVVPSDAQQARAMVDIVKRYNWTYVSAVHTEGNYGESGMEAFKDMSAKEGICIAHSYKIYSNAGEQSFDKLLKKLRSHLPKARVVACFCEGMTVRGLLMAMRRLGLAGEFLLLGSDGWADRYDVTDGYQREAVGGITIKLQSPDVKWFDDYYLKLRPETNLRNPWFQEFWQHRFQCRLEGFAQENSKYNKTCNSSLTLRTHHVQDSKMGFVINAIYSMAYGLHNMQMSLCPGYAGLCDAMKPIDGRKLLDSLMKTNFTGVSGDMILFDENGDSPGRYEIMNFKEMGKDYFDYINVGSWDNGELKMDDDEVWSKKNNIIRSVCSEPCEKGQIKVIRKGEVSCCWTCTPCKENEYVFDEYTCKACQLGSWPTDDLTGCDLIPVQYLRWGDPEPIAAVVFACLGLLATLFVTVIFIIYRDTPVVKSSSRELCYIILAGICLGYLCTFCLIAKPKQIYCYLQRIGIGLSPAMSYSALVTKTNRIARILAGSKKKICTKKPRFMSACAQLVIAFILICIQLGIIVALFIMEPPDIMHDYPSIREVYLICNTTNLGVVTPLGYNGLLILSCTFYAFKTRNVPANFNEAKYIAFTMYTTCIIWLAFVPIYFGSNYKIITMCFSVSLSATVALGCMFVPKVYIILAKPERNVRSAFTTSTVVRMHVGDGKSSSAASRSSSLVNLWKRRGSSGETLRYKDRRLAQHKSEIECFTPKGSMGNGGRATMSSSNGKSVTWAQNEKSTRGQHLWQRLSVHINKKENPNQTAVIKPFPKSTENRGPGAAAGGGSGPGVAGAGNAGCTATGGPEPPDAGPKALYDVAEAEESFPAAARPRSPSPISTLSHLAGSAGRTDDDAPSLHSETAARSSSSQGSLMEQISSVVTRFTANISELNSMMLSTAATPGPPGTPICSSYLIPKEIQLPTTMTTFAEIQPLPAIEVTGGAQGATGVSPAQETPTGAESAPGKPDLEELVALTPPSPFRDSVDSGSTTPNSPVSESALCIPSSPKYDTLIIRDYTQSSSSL

Take `N#C[C@@H]1[C@H](c2ccc(-c3cccc(F)c3)cc2)[C@H](CO)N1C(=O)NC1CCCC1`: the AC50 is 2.84 µM (active) in assay [1], 39.5 µM (active) in assay [2], > 26 µM (inactive) in assay [3] and 0.768 µM (active) in assay [4].

As to `COC(=O)[C@@H]1CCCC[C@@H]1C(=O)N1CCc2ccccc2[C@H]1CN1C(=O)c2ccccc2C1=O`, the AC50 in [5] was > 52 µM (inactive).

On to `CS(=O)(=O)N(CC(=O)NCC(F)(F)F)c1ccccc1Cl`, for which, in [6], the EC50 was 10 µM (inconclusive).

As for `CCCCCCCCCC(=O)[C@@H](O)CC.CCCCCCCCCC(=O)[C@H](O)CC`, in [7], the AC50 was > 200 µM (inactive).

Take `CC(C)N1CCN(C2=C(Nc3cccc(Br)c3)C(=O)c3ccccc3C2=O)CC1`: the AC50 in assay [8] was 11.5 µM (active); in assay [9], 48.5 µM (active); in assay [10] it was 2.52 µM (active).

Take `CCN(CC)c1cc(NC(=O)c2ccccc2F)ncn1`: the IC50 in assay [11] was 0.172 µM (active).

`C[C@H](CO)N1C[C@H](C)[C@H](CN(C)C(=O)Nc2ccccc2)OCCCC[C@H](C)Oc2ccc(NC(=O)C3CCCCC3)cc2C1=O`: the results for the AC50 in assay [12] and in [13] were 3.87 µM (active) and 39.5 µM (active), respectively.

Consider `CN(C)CC#Cc1cccc(-c2nc(C(=O)NCc3ccc(Oc4ccccc4)cc3)cc3c2[C@H](CCO)N([S+]([O-])C(C)(C)C)C3)c1` (some centres undefined), for which the AC50 in assay [14] was 0.746 µM (active).
